Entries after “also recorded” stand apart in the source; their conditions may differ.
Tested on: peroxydation des lipides membranaires (suspensions de mitochondries)
Test: Inhibition of membrane lipid peroxidation in beef heart mitochondria (malonaldehyde formation, dihydroxyfumaric acid/iron)
Type: biochemical, boeuf
Excerpt: L'inhibition de la peroxydation lipidique due aux radicaux libres oxygénés, peroxydation particulièrement importante en présence de fer, a été déterminée, in vitro, par la mesure de la quantité d'aldéhyde malonique formée dans des suspensions de mitochondries, mises en présence d'un générateur d'ions superoxydes comme l'acide dihydroxyfumarique.
L'activité inhibitrice de la peroxydation des lipides membranaires des composés a été déterminée comme suit :
a) préparation des mitochondries
On prélève un coeur de boeuf immédiatement après l'abattage de l'animal et le refroidit à 4°C, température à laquelle toutes les opérations suivantes seront effectuées. Le coeur est lavé avec une solution aqueuse tampon à pH 7,4 (TRIS,HCl 10 mM, EDTA 2 mM, KCl 20 mM, saccharose 250 mM) puis les tissus conjonctifs et les graisses sont éliminés. Le muscle est alors haché et le hachis est mis en suspension dans une solution aqueuse tampon à pH 7,4 (TRIS,HCl 10 mM, saccharose 250 mM, EDTA 1 mM) à raison de 700 g de muscle pour 3 litres. Le pH de la suspension est réajusté à 7,4, régulièrement, avant d'isoler le hachis par filtration sur une gaze. […]
Une gamme étalon de malonaldéhyde bis-(diéthylacétal) dilué dans une solution aqueuse de HCl 0,1 N permet de calculer à quelle concentration d'aldéhyde correspond chaque intensité de la fluorescence i. […]

Q: Which results are given for O=c1[nH]c(=O)c2[nH]c(=O)[nH]c2[nH]1 [acide urique]?
A: inhibition de la peroxydation lipidique (result in words): n'inhibe pas; also recorded: inactif; inhibition de la formation de malonaldéhyde (concentration inférieure à 100 »M): n'inhibe pas
